According to patent US20230250106A1, “COMPOUNDS AND COMPOSITIONS FOR TREATING CONDITIONS ASSOCIATED WITH STING ACTIVITY” (IFM Due, Inc., priority 2020, published 2023):

Tested on: STING pathway
Experiment: STING reporter assay: luciferase reporter activity in THP1-Dual KO-IFNAR2 cells activated with 2'3'cGAMP
Type: cell-based
Settings: Homo sapiens, 2'3'cGAMP 15 μM, 24 h, read-out: hSTING EC50
Description: STING pathway activation by the compounds described herein was measured using THP1-Dual™ cells (KO-IFNAR2).
THP1-Dual™ KO-IFNAR2 Cells (obtained from invivogen) were maintained in RPMI, 10% FCS, 5 ml P/S, 2 mM L-glut, 10 mM Hepes, and 1 mM sodium pyruvate. Compounds were spotted in empty 384 well tissue culture plates (Greiner 781182) by Echo for a final concentration of 0.0017-100 μM. Cells were plated into the TC plates at 40 μL per well, 2×10E6 cells/mL. For activation with STING ligand, 2′3′cGAMP (MW 718.38, obtained from Invivogen), was prepared in Optimem media.
The following solutions were prepared for each 1×384 plate: • Solution A: 2 mL Optimem with one of the following stimuli: • 60 μL of 10 mM 2′3′cGAMP→150 μM stock • Solution B: 2 mL Optimem with 60 μL Lipofectamine 2000→Incubate 5 min at RT
2 mL of solution A and 2 ml Solution B was mixed and incubated for 20 min at room temperature (RT). 20 μL of transfection solution (A+B) was added on top of the plated cells, with a final 2′3′cGAMP concentration of 15 μM. The plates were then centrifuged immediately at 340 g for 1 minute, after which they were incubated at 37° C., 5% CO2,>98% humidity for 24 h. Luciferase reporter activity was then measured. EC50 values were calculated by using standard methods known in the art.
Luciferase reporter assay: 10 μL of supernatant from the assay was transferred to white 384-plate with flat bottom and squared wells. One pouch of QUANTI-Luc™ Plus was dissolved in 25 mL of water. 100 μL of QLC Stabilizer per 25 mL of QUANTI-Luc™ Plus solution was added. 50 μL of QUANTI-Luc™ Plus/QLC solution per well was then added. Luminescence was measured on a Platereader (e.g., Spectramax I3X (Molecular Devices GF3637001)).
Luciferase reporter activity was then measured. EC50 values were calculated by using standard methods known in the art.

SMILES | EC50 [µM]
C[C@@H](c1ccc(C(=O)Nc2c[nH]c3cc(F)c(F)cc23)cc1F)N1CC(F)(F)C1 (single isomer, unassigned) [Compound 244, (R or S)—N-(5,6-difluoro-1H-indol-3-yl)-4-(1-(3,3-difluoroazetidin-1-yl)-1l3-ethyl)-3-fluorobenzamide] | 0.2 to 1
C[C@H](c1ccc(C(=O)Nc2c[nH]c3cc(F)c(F)cc23)cc1F)N1CC(F)(F)C1 (single isomer, unassigned) [Compound 245, (R or S)—N-(5,6-difluoro-1H-indol-3-yl)-4-(1-(3,3-difluoroazetidin-1-yl)-1l3-ethyl)-3-fluorobenzamide] | 0.2 to 1
O=C(Nc1c[nH]c2cc(F)c(F)cc12)c1cnc(N2CC3(C2)CC(F)(F)C3)c(Cl)c1 [Compound 101, 5-chloro-N-(5,6-difluoro-1H-indol-3-yl)-6-(6,6-difluoro-2-azaspiro[3.3]heptan-2-yl)nicotinamide] | 0.2 to 1
CC(C)n1cc(-c2ccc3[nH]cc(NC(=O)c4cnc(N5CCC(F)(F)CC5)c(Cl)c4)c3c2)cn1 [Compound 102, 5-chloro-6-(4,4-difluoropiperidin-1-yl)-N-(5-(1-isopropyl-1H-pyrazol-4-yl)-1H-indol-3-yl)nicotinamide] | 0.2 to 1
COCCCNc1ncc(C(=O)Nc2c[nH]c3cc(F)c(F)cc23)cc1C [Compound 103, N-(5,6-difluoro-1H-indol-3-yl)-6-((3-methoxypropyl)amino)-5-methylnicotinamide] | 5 to 100
N#Cc1ccc2c(NC(=O)c3ccc(OCCCC(F)(F)F)c(F)c3)c[nH]c2c1 [Compound 104, N-(6-cyano-1H-indol-3-yl)-3-fluoro-4-(4,4,4-trifluorobutoxy)benzamide] | 1 to 5
O=C(Nc1c[nH]c2cc(F)c(F)cc12)c1ccnc(OC(F)F)c1 [Compound 106, N-(5,6-difluoro-1H-indol-3-yl)-2-(difluoromethoxy)pyridine-4-carboxamide] | 0.2 to 1
N#Cc1cc(C(=O)Nc2c[nH]c3cc(F)c(F)cc23)cnc1N1CCC(F)(F)CC1 [Compound 107, 5-cyano-N-(5,6-difluoro-1H-indol-3-yl)-6-(4,4-difluoropiperidin-1-yl)nicotinamide] | 0.2 to 1
O=C(Nc1c[nH]c2cc(F)c(F)cc12)c1ccc(C2CC(F)(F)C2)cc1 [Compound 108, N-(5,6-difluoro-1H-indol-3-yl)-4-(3,3-difluorocyclobutyl)benzamide] | 0.2 to 1
O=C(Nc1c[nH]c2cc(F)c(F)cc12)c1ccc(OC2CC(F)(F)C2)cc1 [Compound 109, N-(5,6-difluoro-1H-indol-3-yl)-4-(3,3-difluorocyclobutoxy)benzamide] | 0.2 to 1
O=C(Nc1c[nH]c2c(F)cncc12)c1ccc(OCCCC(F)(F)F)c(F)c1 [Compound 111, 3-fluoro-N-(7-fluoro-1H-pyrrolo[3,2-c]pyridin-3-yl)-4-(4,4,4-trifluorobutoxy)benzamide] | 1 to 5
CC(C)Oc1cc(C(=O)Nc2c[nH]c3cc(F)c(F)cc23)ccn1 [Compound 113, N-(5,6-difluoro-1H-indol-3-yl)-2-(propan-2-yloxy)pyridine-4-carboxamide] | 0.2 to 1
O=C(Nc1c[nH]c2cc(F)c(F)cc12)c1ccc(Oc2cccnc2)cc1 [Compound 118, N-(5,6-difluoro-1H-indol-3-yl)-4-(pyridin-3-yloxy)benzamide] | 0.2 to 1
CC(C)Oc1ccc(C(=O)Nc2c[nH]c3cc(F)c(F)cc23)cc1C#N [Compound 120, 3-cyano-N-(5,6-difluoro-1H-indol-3-yl)-4-(propan-2-yloxy)benzamide] | 0.2 to 1
O=C(NCc1ccc(C(=O)Nc2c[nH]c3cc(F)c(F)cc23)cc1)OCc1cccnc1 [Compound 123, (pyridin-3-yl)methyl N-({4-[(5,6-difluoro-1H-indol-3-yl)carbamoyl]phenyl}methyl)carbamate] | 1 to 5
O=C(Nc1c[nH]c2cc(F)c(F)cc12)c1cccc(OC2CCOCC2)n1 [Compound 124, N-(5,6-difluoro-1H-indol-3-yl)-6-(oxan-4-yloxy)pyridine-2-carboxamide] | 5 to 100
O=C(Nc1c[nH]c2cc(F)c(F)cc12)c1ccc(OC(F)F)c(OCC2CC2)c1 [Compound 127, 3-(cyclopropylmethoxy)-N-(5,6-difluoro-1H-indol-3-yl)-4-(difluoromethoxy)benzamide] | 0.2 to 1
CC(C)Oc1ccc(C(=O)Nc2c[nH]c3cc(F)c(F)cc23)cc1 [Compound 128, N-(5,6-difluoro-1H-indol-3-yl)-4-isopropoxybenzamide] | 0.2 to 1

Continued, values first:

EC50 [µM] | SMILES
0.2 to 1 | O=C(Nc1c[nH]c2cc(F)c(F)cc12)c1cc(Cc2ccc(C(F)(F)F)cc2)c(=O)[nH]n1 [Compound 105, N-(5,6-difluoro-1H-indol-3-yl)-6-oxo-5-(4-(trifluoromethyl)benzyl)-1,6-dihydropyridazine-3-carboxamide]
0.04 to 0.2 | O=C(Nc1c[nH]c2cc(F)c(F)cc12)c1ccc(CCOC(F)(F)F)cc1 [Compound 110, N-(5,6-difluoro-1H-indol-3-yl)-4-(2-(trifluoromethoxy)ethyl)benzamide]
0.2 to 1 | COc1cc(C(=O)Nc2c[nH]c3cc(F)c(F)cc23)ccc1C(F)(F)F [Compound 112, N-(5,6-difluoro-1H-indol-3-yl)-3-methoxy-4-(trifluoromethyl)benzamide]
0.2 to 1 | O=C(Nc1c[nH]c2cc(F)c(F)cc12)c1ccc(OC(F)(F)F)c(Cl)c1 [Compound 114, 3-chloro-N-(5,6-difluoro-1H-indol-3-yl)-4-(trifluoromethoxy)benzamide]
0.2 to 1 | O=C(Nc1c[nH]c2cc(F)c(F)cc12)c1cc(F)c(OCC(F)(F)F)c(F)c1 [Compound 115, N-(5,6-difluoro-1H-indol-3-yl)-3,5-difluoro-4-(2,2,2-trifluoroethoxy)benzamide]
0.2 to 1 | O=C(Nc1c[nH]c2cc(F)c(F)cc12)c1ccc(OC(F)F)cc1 [Compound 116, N-(5,6-difluoro-1H-indol-3-yl)-4-(difluoromethoxy)benzamide]
0.2 to 1 | O=C(Nc1c[nH]c2cc(F)c(F)cc12)c1cccc(OC(F)(F)C(F)F)c1 [Compound 117, N-(5,6-difluoro-1H-indol-3-yl)-3-(1,1,2,2-tetrafluoroethoxy)benzamide]
0.2 to 1 | Cc1cc(OC(F)(F)F)cc(C(=O)Nc2c[nH]c3cc(F)c(F)cc23)c1 [Compound 119, N-(5,6-difluoro-1H-indol-3-yl)-3-methyl-5-(trifluoromethoxy)benzamide]
1 to 5 | O=C(Nc1c[nH]c2cc(F)c(F)cc12)c1cccc(OC(F)F)c1 [Compound 121, N-(5,6-difluoro-1H-indol-3-yl)-3-(difluoromethoxy)benzamide]
0.2 to 1 | O=C(Nc1c[nH]c2cc(F)c(F)cc12)c1ccc(OCC(F)(F)F)cc1Cl [Compound 122, 2-chloro-N-(5,6-difluoro-1H-indol-3-yl)-4-(2,2,2-trifluoroethoxy)benzamide]
0.2 to 1 | O=C(Nc1c[nH]c2cc(F)c(F)cc12)c1cccc(OC(F)(F)F)c1 [Compound 125, N-(5,6-difluoro-1H-indol-3-yl)-3-(trifluoromethoxy)benzamide]
0.2 to 1 | CC(C)Oc1ccc(C(=O)Nc2c[nH]c3cc(F)c(F)cc23)cc1C(F)(F)F [Compound 126, N-(5,6-difluoro-1H-indol-3-yl)-4-(propan-2-yloxy)-3-(trifluoromethyl)benzamide]
